Measurements as given in patent US6884421B2, “Pharmaceutical composition for diabetic nephropathy” (Council of Scientific and Industrial Research, priority 2002, dated 2005).
Marks after values point to notes of the source that are not given here.

Experiments:
diabetic rats [1] = test: Glomerular Filtration Rate from urinary and plasma creatinine in streptozotocin diabetic rats; type: in vivo, Male Wistar rats; details: end of fifth week, mean ±SEM
Source text: Urinary creatinine is estimated by alkaline picrate reagent method. […] The plasma is deproteinsed using tungstic acid prior to creatinine estimation.
The formula used is [formula]

diabetic rats [2] = test: Urinary protein excretion by TCA precipitation method in streptozotocin diabetic rats; type: in vivo, Male Wistar rats; details: end of fifth week
Procedure: Urinary protein is determined at the end of fifth week by TCA precipitation method and the absorbance is measured at 660 nm.
Diabetes is induced in Male Wistar rats weighing between 120 g using streptozotocin at 55 mg/kg body weight and the rats are fed with wheat bran (1 to 5%), guar gum (1 to 2.5%) and butyric acid in the range of 1, 2, 4, 6, 8 and 10 mg/kg body weight/day in drinking water. After 4 days measuring fasting blood glucose level in the plasma and urinary sugar levels assessed the diabetic status.
Diabetes is induced in Male Wistar rats weighing between 120 g using streptozotocin at 55 mg/kg body weight and the rats are fed with wheat bran (1 to 5%), guar gum (1 to 2.5%) and butyric acid in the range of 250, 500 and 750 mg/kg body weight/day in drinking water. After 4 days measuring fasting blood glucose level in the plasma and urinary sugar levels assessed the diabetic status.
Urinary protein is determined at the end of fifth week by TCA precipitation method and the absorbance is measured at 660 nm (Table 2).

[3] = FFD-250: fibre fed (wheat bran, guar gum) diabetic rats, 250 mg butyric acid/kg body weight/day in drinking water
[4] = FFD-500: fibre fed (wheat bran, guar gum) diabetic rats, 500 mg butyric acid/kg body weight/day in drinking water
[5] = FFD-750: fibre fed (wheat bran, guar gum) diabetic rats, 750 mg butyric acid/kg body weight/day in drinking water
[6] = SFD-250: starch fed diabetic rats, 250 mg butyric acid/kg body weight/day in drinking water
[7] = SFD-500: starch fed diabetic rats, 500 mg butyric acid/kg body weight/day in drinking water
[8] = SFD-750: starch fed diabetic rats, 750 mg butyric acid/kg body weight/day in drinking water

`CCCC(=O)O` [butyric acid] was tested, and the GFR (diabetic rats [1]; [3]) was 10.56 ± 1.05^b mL/min, the GFR (diabetic rats [1]; [4]) was 9.23 ± 1.09^b mL/min and the GFR (diabetic rats [1]; [5]) was 11.64 ± 1.27^b mL/min. For the same compound, the GFR (diabetic rats [1]; [6]) was 15.99 ± 1.30 mL/min, the GFR (diabetic rats [1]; [7]) was 15.60 ± 1.21 mL/min and the GFR (diabetic rats [1]; [8]) was 15.23 ± 1.04 mL/min. The Urinary protein (diabetic rats [2]; [3]) was 104.07 ± 11.31^b mg/24 h, the Urinary protein (diabetic rats [2]; [4]) was 88.82 ± 9.82^b mg/24 h and the Urinary protein (diabetic rats [2]; [5]) was 90.37 ± 9.14^b mg/24 h. The Urinary protein (diabetic rats [2]; [6]) was 126.77 ± 9.82 mg/24 h, the Urinary protein (diabetic rats [2]; [7]) was 124.86 ± 6.81^b mg/24 h and the Urinary protein (diabetic rats [2]; [8]) was 115.37 ± 10.91 mg/24 h.
